Reference: publication PMC4066871 (Bioorganic & medicinal chemistry letters, 2013)

Assays:
GIRK1/GIRK4 [1] = target: T1, GIRK1/GIRK4 (Homo sapiens, UniProt P48544+P48549); assay: GIRK1/4 thallium flux assay in stably transfected HEK-293 cells; assay type: cell-based
T1 sequence (P48549 1-501): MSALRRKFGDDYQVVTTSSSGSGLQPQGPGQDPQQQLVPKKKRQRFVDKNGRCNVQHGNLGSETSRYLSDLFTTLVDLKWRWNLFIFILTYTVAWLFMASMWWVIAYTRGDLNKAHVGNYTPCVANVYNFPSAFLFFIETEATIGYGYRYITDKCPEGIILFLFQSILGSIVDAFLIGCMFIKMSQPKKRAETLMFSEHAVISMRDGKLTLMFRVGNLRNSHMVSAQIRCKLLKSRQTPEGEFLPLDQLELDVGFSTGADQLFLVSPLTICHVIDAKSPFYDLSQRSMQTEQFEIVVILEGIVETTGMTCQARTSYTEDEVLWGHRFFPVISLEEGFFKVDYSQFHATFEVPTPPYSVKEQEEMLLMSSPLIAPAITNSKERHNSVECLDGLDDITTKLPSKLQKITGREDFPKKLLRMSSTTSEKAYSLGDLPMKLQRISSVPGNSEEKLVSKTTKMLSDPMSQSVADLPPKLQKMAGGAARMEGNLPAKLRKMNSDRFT
T1 sequence (P48544 1-419): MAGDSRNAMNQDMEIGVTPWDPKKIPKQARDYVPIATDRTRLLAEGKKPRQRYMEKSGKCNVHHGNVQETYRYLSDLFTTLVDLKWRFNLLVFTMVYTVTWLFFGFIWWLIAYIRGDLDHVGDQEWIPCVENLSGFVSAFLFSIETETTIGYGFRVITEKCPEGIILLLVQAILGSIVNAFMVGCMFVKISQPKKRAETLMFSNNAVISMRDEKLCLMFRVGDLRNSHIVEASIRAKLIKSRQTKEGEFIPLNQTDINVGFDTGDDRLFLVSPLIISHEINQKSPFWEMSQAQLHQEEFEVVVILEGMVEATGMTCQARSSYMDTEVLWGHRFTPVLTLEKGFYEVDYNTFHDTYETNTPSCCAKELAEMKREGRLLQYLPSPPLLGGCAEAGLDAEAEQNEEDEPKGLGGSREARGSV

GIRK1/GIRK2 = target: T2, GIRK1/GIRK2 (Homo sapiens, UniProt P48051+P48549); assay: GIRK1/2 thallium flux assay in stably transfected HEK-293 cells; assay type: cell-based
T2 sequence (P48549 1-501): T1 sequence (P48549 1-501)
T2 sequence (P48051 1-423): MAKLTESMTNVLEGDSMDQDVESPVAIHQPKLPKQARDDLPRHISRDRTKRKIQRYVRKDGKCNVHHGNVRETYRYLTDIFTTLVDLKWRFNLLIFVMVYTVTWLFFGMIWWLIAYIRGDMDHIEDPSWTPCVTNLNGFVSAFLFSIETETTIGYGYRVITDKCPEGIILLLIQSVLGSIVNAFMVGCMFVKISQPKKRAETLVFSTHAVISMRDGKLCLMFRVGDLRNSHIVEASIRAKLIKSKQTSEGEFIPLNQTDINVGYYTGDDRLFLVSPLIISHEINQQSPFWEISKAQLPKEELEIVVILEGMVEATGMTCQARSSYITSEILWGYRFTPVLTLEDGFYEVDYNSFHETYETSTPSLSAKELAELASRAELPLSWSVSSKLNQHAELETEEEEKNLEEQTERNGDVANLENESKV

GIRK = settings: cited from earlier work
GIRK1/GIRK4 [2] = target: T1, GIRK1/GIRK4; settings: GIRK1/2 activator vs GIRK1/4; cited from earlier work
GIRK2/3 = settings: cited from earlier work
GIRK1/2 = settings: cited from earlier work
other K+ channels = settings: cited from earlier work

Structure (SMILES)	GIRK1/4 activity (in words) (GIRK1/GIRK4 [1])	GIRK1/2 activity (in words) (GIRK1/GIRK2)	other results
Cc1ccc(NC(=O)Cc2ccc(F)cc2)cc1S(=O)(=O)N(C)C [Compd 3d]	diminution in potency	diminution in potency	
O=C(Cc1ccccc1Cl)Nc1ccc(C(F)(F)F)cc1 [Compd 8h]	selective, partial GIRK1/4 activators		
CN(C)S(=O)(=O)c1cccc(NC(=O)Cc2ccc(Cl)cc2)c1 [Compd 3c]	diminution in potency	diminution in potency	
CCO [ethanol]			Concentration known to activate GIRK (GIRK): hundreds of millimolar
CN(C)S(=O)(=O)c1cccc(NC(=O)Cc2ccccc2Cl)c1 [Compd 3b]	maintained potency and efficacy	diminished potency and lost efficacy	
O=C(Cc1ccccc1Cl)Nc1cccc(Cl)c1 [Compd 8g]	selective, partial GIRK1/4 activators		
C[C@@H]1O[C@@H](O[C@H]2[C@H](Oc3cc(O)c4c(c3)O[C@H](c3ccc(O)cc3)CC4=O)O[C@H](CO)[C@@H](O)[C@@H]2O)[C@H](O)[C@H](O)[C@H]1O [naringin]			EC50 (GIRK; read-out: GIRK activation EC50, reported value): > 100 µM
Cc1cc(NC(=O)Nc2ccc(F)c(F)c2)n(-c2ccccc2)n1 [Compd 2]			Selectivity for GIRK1/2 vs GIRK1/4 (GIRK1/GIRK4 [2]): ~ 10 fold; Activity on GIRK2/3 (in words) (GIRK2/3): inactive; CNS penetration (in words) (GIRK1/2): centrally penetrant; Anti-epileptic properties (in words) (GIRK1/2; mice, via GIRK1/2 activation): established anti-epileptic properties in mice; Activity on other K+ channels (in words) (other K+ channels): inactive
